# Tested on: SH-SY5Y cells
# Test: Hoechst staining assay of Aβ1-42-induced apoptosis
# Type: cell-based
# Details: Homo sapiens, 10 μM Aβ1-42, 200 μM compound, 24 hours, read-out: inhibition of Aβ-induced cellular apoptosis at DNA level
# Method: SH-SY5Y cells were cultured and sub-cultured according to ATCC's recommendations. Cells were grown in a culture medium containing 10% fetal bovine serum (FBS), 1× non-essential amino acids in a 1:1 mixture of Eagle's minimum essential medium and Ham's F12 medium.
# For passage, cells were trypsinized with 0.25% (w/vol) Trypsin/Ethylene-diaminetetraacetic (EDTA) for 5 min at 37° C., and then centrifuged for 5 min at 300× g (GS-6R Beckman Centrifuge). The pellet was resuspended in the culture medium and the cell density was adjusted.
# Synthetic Aβ1-42 is purchased from American Peptide Company, Sunnyvale, Calif. […] The exact concentration of the solution is calculated by measuring the optical density at 280 nm. […]
# Nuclear morphology was observed using an Olympus fluorescent microscope IX50 equipped with an Olympus Camera (20× objectif and a bandpass filter (Ex/Em: 355 nm/465 nm). Live cells and cells considered morphologically apoptotic were counted. Apoptotic nuclei of undifferentiated SH-SY5Y appear condensed and occasionally fragmented (representative pictures of Hoechst staining are in FIGS. 1A-1B for vehicle and 2A-2B for Aβ).
# Five random fields were captured for each condition in a blinded fashion. Apoptotic and normal nuclei in each field were quantified by manual examination. […] The total number of cells counted in each condition ranged from 120 to 550. […]
smiles,measurement,value
N[C@@H](Cc1cccc(CSc2nnc(-c3ccccc3)[nH]2)c1)C(=O)O [drawing 537],inhibition at 200 µM,22.5%

# — patent publication US20060167057A1, “Compounds for the treatment of CNS and amyloid associated diseases” (priority 2004, published 2006)
